According to ChEMBL document CHEMBL2176878, “Synthesis and biological characterization of 3-substituted 1H-indoles as ligands of GluN2B-containing N-methyl-D-aspartate receptors. Part 2” (J Med Chem, 2012):
Blank lines part the entries; values can stand above or below the compound they belong to.

Legend:
[1] = target: Glutamate receptor ionotropic, NMDA 2B (Rattus norvegicus, UniProt Q00960); experiment: Displacement of [3H]ifenprodil from NMDA receptor GluN2B subunit in Wistar rat cerebral cortex after 120 mins; format: tissue-based
[2] = Dissociation constant, pKa of the compound; format: physicochemical
[3] = target: Glutamate receptor ionotropic, NMDA 2B (Rattus norvegicus) (UniProt Q00960); experiment: (§1) Antagonist activity at NMDA receptor GluN2B subunit in Wistar rat CA1 pyramidal neurons assessed as decrease in EPSC amplitude at holding potential of -60 mV at 100 nM measured at 5 mins by patch clamp electrophysiological assay in presence of Mg2+ free ACSF containing CNQX, glycine, bicuculline relative to control; format: functional, cell-based; design: scale not given: the % may be the effect or the level left; conditions: Pyramidal neuron
[4] = target: Glutamate receptor ionotropic, NMDA 2B (Mus musculus) (UniProt Q01097); experiment: as §1, with “FVB mouse” for “Wistar rat”; format: functional, cell-based; design: scale not given: the % may be the effect or the level left; conditions: Pyramidal neuron
[5] = target: Glutamate receptor ionotropic, NMDA 2B (Rattus norvegicus) (UniProt Q00960); experiment: Displacement of [3H]ifenprodil from NMDA receptor GluN2B subunit in Wistar rat cerebral cortex at 10 uM after 120 mins; format: tissue-based
[6] = target: Glutamate receptor ionotropic, NMDA 2B (Mus musculus) (UniProt Q01097); experiment: as §1, with “FVB mouse” for “Wistar rat”, “50 uM” for “100 nM”; format: functional, cell-based; design: scale not given: the % may be the effect or the level left; conditions: Pyramidal neuron
[7] = target: Glutamate NMDA receptor; Grin1/Grin2b (Rattus norvegicus, UniProt P35439+Q00960); experiment: Inhibition of rat NMDA receptor NR1F/NR2B subunit expressed in Xenopus laevis oocytes after 2 days by two-electrode voltage-clamp electrophysiological assay; format: cell-based, Oocyte
[8] = target: Glutamate receptor ionotropic, NMDA 2B (Mus musculus) (UniProt Q01097); experiment: as §1, with “FVB mouse” for “Wistar rat”, “6 uM” for “100 nM”; format: functional, cell-based; design: scale not given: the % may be the effect or the level left; conditions: Pyramidal neuron

Sequence of Glutamate receptor ionotropic, NMDA 2B (Q00960 whole entry): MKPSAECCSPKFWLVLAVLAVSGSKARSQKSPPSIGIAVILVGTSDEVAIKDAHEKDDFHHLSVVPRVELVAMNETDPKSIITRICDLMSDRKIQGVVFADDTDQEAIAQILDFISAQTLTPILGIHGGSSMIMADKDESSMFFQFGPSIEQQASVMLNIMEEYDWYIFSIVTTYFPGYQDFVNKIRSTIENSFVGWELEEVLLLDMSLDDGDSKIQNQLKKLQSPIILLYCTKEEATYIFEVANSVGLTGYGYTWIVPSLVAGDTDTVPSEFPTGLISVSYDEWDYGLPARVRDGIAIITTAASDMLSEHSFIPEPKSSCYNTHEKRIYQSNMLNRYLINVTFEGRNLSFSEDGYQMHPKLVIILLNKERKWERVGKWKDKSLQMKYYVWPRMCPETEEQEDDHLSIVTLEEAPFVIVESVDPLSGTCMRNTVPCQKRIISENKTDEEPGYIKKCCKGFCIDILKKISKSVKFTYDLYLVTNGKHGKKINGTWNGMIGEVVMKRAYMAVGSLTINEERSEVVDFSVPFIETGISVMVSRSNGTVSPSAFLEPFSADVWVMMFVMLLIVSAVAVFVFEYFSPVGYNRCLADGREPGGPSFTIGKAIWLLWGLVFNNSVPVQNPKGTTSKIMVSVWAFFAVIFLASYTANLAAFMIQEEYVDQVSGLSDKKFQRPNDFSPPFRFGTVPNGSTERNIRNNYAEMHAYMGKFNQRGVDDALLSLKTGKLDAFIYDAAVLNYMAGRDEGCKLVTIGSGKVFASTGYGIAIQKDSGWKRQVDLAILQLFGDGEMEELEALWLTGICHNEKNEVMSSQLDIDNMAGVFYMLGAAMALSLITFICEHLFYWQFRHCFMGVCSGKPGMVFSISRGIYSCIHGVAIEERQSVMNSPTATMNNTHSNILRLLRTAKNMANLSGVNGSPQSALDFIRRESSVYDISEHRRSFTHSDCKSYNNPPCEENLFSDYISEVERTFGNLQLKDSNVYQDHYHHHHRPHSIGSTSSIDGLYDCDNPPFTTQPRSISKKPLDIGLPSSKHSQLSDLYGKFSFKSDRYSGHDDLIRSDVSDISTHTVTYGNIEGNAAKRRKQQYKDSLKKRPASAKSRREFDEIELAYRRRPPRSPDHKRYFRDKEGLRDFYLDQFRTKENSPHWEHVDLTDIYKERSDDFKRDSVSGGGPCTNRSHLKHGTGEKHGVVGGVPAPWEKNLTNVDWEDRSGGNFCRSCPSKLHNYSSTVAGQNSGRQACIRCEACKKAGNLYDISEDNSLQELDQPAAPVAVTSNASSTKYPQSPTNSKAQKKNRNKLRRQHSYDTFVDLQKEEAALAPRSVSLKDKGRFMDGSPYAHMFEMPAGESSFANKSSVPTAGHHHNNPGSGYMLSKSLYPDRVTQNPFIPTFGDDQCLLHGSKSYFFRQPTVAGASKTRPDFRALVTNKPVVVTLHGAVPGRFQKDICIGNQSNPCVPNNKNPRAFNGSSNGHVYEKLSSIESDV
Sequence of Glutamate receptor ionotropic, NMDA 2B (Rattus norvegicus) (Q00960 27-1482 limits assumed): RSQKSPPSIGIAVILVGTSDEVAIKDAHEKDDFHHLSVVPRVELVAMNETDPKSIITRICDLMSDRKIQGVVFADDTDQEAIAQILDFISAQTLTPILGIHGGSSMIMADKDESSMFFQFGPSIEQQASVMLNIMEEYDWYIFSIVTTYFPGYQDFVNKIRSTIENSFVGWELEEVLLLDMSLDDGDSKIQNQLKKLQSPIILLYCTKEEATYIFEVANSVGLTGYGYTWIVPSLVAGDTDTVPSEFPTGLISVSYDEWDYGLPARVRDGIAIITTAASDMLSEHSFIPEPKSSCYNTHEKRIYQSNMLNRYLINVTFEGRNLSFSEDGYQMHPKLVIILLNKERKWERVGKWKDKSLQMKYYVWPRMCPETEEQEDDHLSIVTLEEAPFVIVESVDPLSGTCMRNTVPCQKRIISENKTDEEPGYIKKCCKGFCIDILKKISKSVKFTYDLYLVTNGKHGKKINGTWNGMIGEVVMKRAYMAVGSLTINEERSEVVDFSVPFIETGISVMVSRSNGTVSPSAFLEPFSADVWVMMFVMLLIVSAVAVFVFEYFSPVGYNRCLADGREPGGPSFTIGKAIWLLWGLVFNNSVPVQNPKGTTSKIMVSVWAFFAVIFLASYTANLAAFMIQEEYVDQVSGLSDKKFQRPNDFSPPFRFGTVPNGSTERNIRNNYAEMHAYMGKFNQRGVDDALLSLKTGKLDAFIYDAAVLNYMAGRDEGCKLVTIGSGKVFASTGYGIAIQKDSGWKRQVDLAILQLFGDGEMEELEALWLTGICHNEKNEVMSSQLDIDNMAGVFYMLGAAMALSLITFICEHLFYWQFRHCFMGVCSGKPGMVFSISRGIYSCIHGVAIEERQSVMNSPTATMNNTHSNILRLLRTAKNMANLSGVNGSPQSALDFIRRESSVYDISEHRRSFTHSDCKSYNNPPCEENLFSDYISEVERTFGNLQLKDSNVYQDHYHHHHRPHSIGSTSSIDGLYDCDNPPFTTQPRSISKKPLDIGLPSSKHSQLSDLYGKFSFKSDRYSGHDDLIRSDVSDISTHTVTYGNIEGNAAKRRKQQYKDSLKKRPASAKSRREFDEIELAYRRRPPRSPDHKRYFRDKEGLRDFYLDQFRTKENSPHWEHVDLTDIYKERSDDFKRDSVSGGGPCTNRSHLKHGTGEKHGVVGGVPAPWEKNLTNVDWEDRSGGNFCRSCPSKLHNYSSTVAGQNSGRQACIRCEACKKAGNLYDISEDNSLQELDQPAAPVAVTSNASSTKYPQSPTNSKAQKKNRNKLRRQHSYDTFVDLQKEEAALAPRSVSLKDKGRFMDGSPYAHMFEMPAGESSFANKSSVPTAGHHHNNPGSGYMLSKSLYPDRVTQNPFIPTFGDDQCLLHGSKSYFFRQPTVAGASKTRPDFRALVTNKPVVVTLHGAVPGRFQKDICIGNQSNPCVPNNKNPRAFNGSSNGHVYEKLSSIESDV
Sequence of Glutamate receptor ionotropic, NMDA 2B (Mus musculus) (Q01097 whole entry): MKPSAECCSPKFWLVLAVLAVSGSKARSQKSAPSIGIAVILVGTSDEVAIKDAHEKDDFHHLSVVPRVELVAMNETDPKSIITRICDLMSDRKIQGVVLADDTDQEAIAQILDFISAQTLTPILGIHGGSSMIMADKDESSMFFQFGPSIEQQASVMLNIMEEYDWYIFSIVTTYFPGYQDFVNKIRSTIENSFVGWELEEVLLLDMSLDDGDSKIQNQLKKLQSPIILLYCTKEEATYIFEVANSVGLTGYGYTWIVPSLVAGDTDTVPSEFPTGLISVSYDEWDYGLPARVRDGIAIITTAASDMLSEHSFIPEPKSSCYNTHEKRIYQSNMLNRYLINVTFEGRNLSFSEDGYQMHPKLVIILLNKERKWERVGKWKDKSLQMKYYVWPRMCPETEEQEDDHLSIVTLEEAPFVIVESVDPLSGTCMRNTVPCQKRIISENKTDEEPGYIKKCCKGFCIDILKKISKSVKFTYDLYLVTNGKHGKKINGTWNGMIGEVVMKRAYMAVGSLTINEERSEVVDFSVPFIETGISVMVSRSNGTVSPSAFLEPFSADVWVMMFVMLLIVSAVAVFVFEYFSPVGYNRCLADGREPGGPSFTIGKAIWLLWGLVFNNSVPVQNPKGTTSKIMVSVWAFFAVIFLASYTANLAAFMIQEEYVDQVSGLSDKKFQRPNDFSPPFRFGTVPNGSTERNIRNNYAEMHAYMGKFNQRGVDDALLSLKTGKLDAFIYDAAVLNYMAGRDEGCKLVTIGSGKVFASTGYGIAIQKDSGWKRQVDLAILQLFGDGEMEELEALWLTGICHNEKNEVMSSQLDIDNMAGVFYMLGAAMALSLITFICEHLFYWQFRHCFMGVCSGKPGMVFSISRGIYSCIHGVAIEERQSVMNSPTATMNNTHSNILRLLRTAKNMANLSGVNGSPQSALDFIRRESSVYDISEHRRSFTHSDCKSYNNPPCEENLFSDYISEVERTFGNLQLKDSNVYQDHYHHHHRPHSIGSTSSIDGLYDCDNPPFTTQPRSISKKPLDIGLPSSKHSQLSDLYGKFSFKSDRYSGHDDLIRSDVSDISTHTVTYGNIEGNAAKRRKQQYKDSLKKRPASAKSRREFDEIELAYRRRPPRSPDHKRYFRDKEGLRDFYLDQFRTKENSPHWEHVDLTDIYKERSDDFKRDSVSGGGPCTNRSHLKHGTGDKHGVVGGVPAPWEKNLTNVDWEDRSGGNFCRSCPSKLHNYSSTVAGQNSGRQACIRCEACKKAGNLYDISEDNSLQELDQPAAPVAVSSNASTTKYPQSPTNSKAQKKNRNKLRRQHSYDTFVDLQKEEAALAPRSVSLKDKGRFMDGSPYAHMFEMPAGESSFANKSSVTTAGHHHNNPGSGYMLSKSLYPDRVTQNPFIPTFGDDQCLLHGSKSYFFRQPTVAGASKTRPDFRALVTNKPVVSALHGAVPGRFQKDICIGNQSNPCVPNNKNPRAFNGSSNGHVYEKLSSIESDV

IC50 [1]: 320 nM
SMILES: CS(=O)(=O)Nc1ccc2[nH]cc(C(=O)CN3CCC(Cc4ccccc4)CC3)c2c1

pKa [2]: 9.97 | IC50 [1]: 8.9 nM | Activity [3]: 50% | Activity [4]: 23.3%
SMILES: CS(=O)(=O)Nc1ccc2c(C(=O)CN3CCC(Cc4ccccc4)CC3)c[nH]c2c1

pKa [2]: 9.63
SMILES: O=C(CN1CCC(Cc2ccccc2)CC1)c1c[nH]c2cc(O)ccc12

IC50 [1]: 2270 nM
SMILES: Nc1ccc2c(C(=O)CN3CCC(Cc4ccccc4)CC3)c[nH]c2c1

inhibition [5]: 40%
SMILES: Nc1ccc2[nH]cc(C(=O)C(=O)N3CCC(Cc4ccccc4)CC3)c2c1

IC50 [1]: 63 nM
SMILES: CS(=O)(=O)Nc1ccc2c(C(=O)C(=O)N3CCC(Cc4ccccc4)CC3)c[nH]c2c1

inhibition [5]: 32%
SMILES: Nc1ccc2c(C(=O)C(=O)N3CCC(Cc4ccccc4)CC3)c[nH]c2c1

SMILES: N[C@H](CCCP(=O)(O)O)C(=O)O
Activity [6]: 28%

inhibition [5]: 42%
SMILES: CS(=O)(=O)Nc1ccc2[nH]cc(C(=O)C(=O)N3CCC(Cc4ccccc4)CC3)c2c1

IC50 [7]: 17 nM | Activity [8]: 29%
SMILES: C[C@@H](CN1CCC(Cc2ccccc2)CC1)[C@@H](O)c1ccc(O)cc1

IC50 [1]: 1180 nM
SMILES: Nc1ccc2[nH]cc(C(=O)CN3CCC(Cc4ccccc4)CC3)c2c1
